Data taken from paper PMC9459842, “Chemical Profiling and Biological Activities of Pelargonium graveolens Essential Oils at Three Different Phenological Stages” (Plants, 2022).
Marks after values point to notes of the source that are not given here.

Experiments:
[1] = H2O2 antioxidant assay; format: biochemical; conditions: n = 3
Experimental: (§1) The antioxidant activity of PGEO was evaluated by using […] complementary methods, DPPH, FRAP, ABTS, and H2O2 assays, according to the previously published protocols. The results are expressed as the concentration of PGEO providing 50% inhibition (IC50) and calculated by plotting the inhibition degrees against the essential oil concentrations. Trolox and ascorbic acid were used as positive controls. The assays were carried out in triplicate, and the IC50 values were presented as means ± SD.

[2] = FRAP antioxidant assay; format: biochemical; conditions: n = 3
Experimental: as §1

[3] = DPPH antioxidant assay; format: biochemical; conditions: n = 3
Experimental: as §1

[4] = ABTS antioxidant assay; format: biochemical; conditions: n = 3
Experimental: as §1

[5] = test system: Listeria monocytogenes ATCC 13932; assay: disc diffusion assay; format: cell-based; conditions: L. monocytogenes ATCC 13932; 50 μL of oil/well, chloramphenicol 30 µg; includes 6 mm well
Experimental: (§2) The antibacterial activity was evaluated against the following six bacterial strains representing Gram-positive and Gram-negative bacteria: Escherichia coli ATCC 25922, Proteus mirabilis ATCC 25933, Salmonella Typhimurium ATCC 700408, Bacillus subtilis ATCC 6633, Staphylococcus aureus ATCC 29213, and Listeria monocytogenes ATCC 13932. The tested bacterial strains were prepared by inoculating a loopful from the frozen stock (−20 °C) in Mueller–Hinton Agar (Biokar, Beauvais, France) and incubated at 37 °C for 24 h under an aerobic environment.
(§3) The primary screening of the antimicrobial activity of the studied samples was evaluated by the disc diffusion method according to the previously published investigation. Briefly, the culture suspension of each species was inoculated in Mueller–Hinton Agar (Biolife, Italiana, Milano-Italy). […] Chloramphenicol (30 µg) was used as a positive control for bacteria strains, while dimethylsulfoxide (DMSO) (10 µL; 5%) was used as a negative control. The plates were incubated at the following growth conditions; 37 °C for 24 h, 25 °C for 48 h, and 25 °C for 72 h for bacteria, yeast, and fungi, respectively. After incubation, the inhibitory diameters were measured in millimeters, and the results were expressed as means ± Standard Deviation of three replicates.

[6] = test system: Salmonella Typhimurium ATCC700408; assay: disc diffusion assay; format: cell-based; conditions: S. Typhimurium ATCC700408; 50 μL of oil/well, chloramphenicol 30 µg; includes 6 mm well
Experimental: as §2, §3

[7] = test system: Bacillus subtilis ATCC 6633; assay: disc diffusion assay; format: cell-based; conditions: B. subtilis ATCC 6633; 50 μL of oil/well, chloramphenicol 30 µg; includes 6 mm well
Experimental: as §2, §3

[8] = test system: Proteus mirabilis ATCC 25933; assay: disc diffusion assay; format: cell-based; conditions: P. mirabilis ATCC 25933; 50 μL of oil/well, chloramphenicol 30 µg; includes 6 mm well
Experimental: as §2, §3

[9] = test system: Escherchia coli ATCC 25922; assay: disc diffusion assay; format: cell-based, Escherichia coli; conditions: E. coli ATCC 25922; 50 μL of oil/well, chloramphenicol 30 µg; includes 6 mm well
Experimental: as §2, §3

[10] = test system: carrageenan-induced edema; parameters: method as in PMID 12587692; conditions: 32, 64, and 96 mg/kg; cited from earlier work
[11] = test system: rats treated with ethanol for the induction of gastric ulcers; parameters: method as in PMID 24466200; conditions: 50 mg/kg; cited from earlier work
[12] = test system: monocytes; parameters: method as in PMID 9889172; conditions: in vitro; cited from earlier work
[13] = test system: diabetic animals; parameters: method as in PMID 28549291; conditions: daily doses 25, 50, and 100 mg/kg b.w.; cited from earlier work
[14] = test system: occlusion of the middle cerebral artery in male rats; conditions: intraperitoneal 100 mg/kg, cited from earlier work
[15] = test system: catabolic and inflammatory pathways induced by IL-1β; parameters: method as in PMID 24455984; conditions: in vitro; cited from earlier work
[16] = test system: alloxan-induced diabetic mice; parameters: method as in doi:10.23893/1307-2080.APS.05522; conditions: 2 and 24 h after the treatment; cited from earlier work
[17] = test system: inflammatory responses by lipopolysaccharide (LPS) in mice; conditions: cited from earlier work
[18] = test system: COX-2; parameters: method as in PMID 26721216; conditions: cited from earlier work

For O=C1O[C@H]([C@@H](O)CO)C(O)=C1O [Ascorbic Acid, Ascorbic acid], the “antioxidant activity IC50, H2O2” value [1] was 23.34 ± 0.03 ^a μg/mL, the “antioxidant activity IC50, FRAP” value [2] was 31.47 ± 1.07 ^a μg/mL and the “antioxidant activity IC50, DPPH” value [3] was 15.13 ± 0.04 ^a μg/mL. The “antioxidant activity IC50, ABTS” value [4] was 42.22 ± 0.05 ^a μg/mL.

For O=C(N[C@H](CO)[C@H](O)c1ccc([N+](=O)[O-])cc1)C(Cl)Cl [Chloramphenicol], the inhibitory diameter [5] was 29.07 ± 0.58 mm, the inhibitory diameter [6] was 13.17 ± 0.25 mm and the inhibitory diameter [7] was 15.87 ± 0.21 mm. For the same compound, the inhibitory diameter [8] was 21.27 ± 0.21 mm and the inhibitory diameter [9] was 22.47 ± 0.21 mm.

In the case of Cc1c(C)c2c(c(C)c1O)CCC(C)(C(=O)O)O2 (stereo not shown) [Trolox], the “antioxidant activity IC50, FRAP” value [2] was 48.25 ± 0.05 ^b μg/mL, the “antioxidant activity IC50, DPPH” value [3] was 24.31 ± 0.02 ^b μg/mL and the “antioxidant activity IC50, ABTS” value [4] was 61.48 ± 1.32 ^b μg/mL.

For C=CC(C)(CCC=C(C)C)OC(C)=O (stereo not shown) [linalyl acetate], the carrageenan-induced edema [10] is listed as “remarkable reduction”.

For CC1CCC(C(C)C)C(O)C1 (stereo not shown) [menthol], the “levels of IL-6 and TNF-α” value [11] is listed as “reduced the levels of IL-6 and TNF-α”, the “production of IL-1, PGE2, and LTB4” value [12] is listed as “inhibit the production of inflammation mediators” and the “glycosylated hemoglobin, blood glucose levels” value [13] is listed as “decreased glycosylated hemoglobin, blood glucose levels”.

In the case of CC1=CCC2CC1C2(C)C (stereo not drawn) [α-pinene], the “expression of IL-1 and TNF-α” value [14] is given as “decreased”, the “concentration of IL-6, NO, and malondialdehyde (MDA)” value ([14]; striatum, cortex, and hippocampus) is given as “decreased” and the “expression of catabolic and inflammatory genes, activation of NF-κB and JNK” value [15] is given as “strongly inhibits”. For the same compound, the “fasting blood glucose levels” value [16] was “reduce fasting blood glucose levels”, the “synthesis of nitric oxide (NO), TNF-α, and IL-6” value [17] was “decrease the synthesis of nitric oxide (NO), TNF-α, and IL-6” and the COX-2 overexpression [18] was “potent effect on COX-2 overexpression”.
